Test results: US8415469B2, “Compounds and methods for kinase modulation, and indications therefor” (Plexxikon Inc., priority 2005, dated 2013)
pIC50: −log10 of the molar value.

Key:
Format in all cases: biochemical
FGFR1 = target: T1, FGFR1 (Homo sapiens, UniProt P11362, C488A/C584S); test: AlphaScreen kinase assay, FGFR1; details: read-out: IC50, activity toward kinase FGFR
T1 construct: P1351.pET N6 BI-PTP FGFR A458-E765-X C488A, C584S; made in house; host or cells: E. coli (PTP1B co-expressed)
T1 sequence (P11362 458-765 C488A/C584S): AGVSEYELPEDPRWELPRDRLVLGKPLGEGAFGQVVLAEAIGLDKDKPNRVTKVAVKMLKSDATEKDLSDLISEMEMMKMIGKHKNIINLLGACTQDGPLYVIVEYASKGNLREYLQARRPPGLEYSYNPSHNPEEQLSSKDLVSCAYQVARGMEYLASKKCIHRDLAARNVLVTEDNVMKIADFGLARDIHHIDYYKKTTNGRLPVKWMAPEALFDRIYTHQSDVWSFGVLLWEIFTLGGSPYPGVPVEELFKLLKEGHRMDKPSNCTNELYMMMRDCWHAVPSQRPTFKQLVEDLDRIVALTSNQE

Kit = target: T2, Kit (Homo sapiens, UniProt P10721); test: AlphaScreen kinase assay, Kit; details: read-out: IC50, activity toward kinase Kit
T2 construct: P1332.N6 BI PTP KIT M552-K948-X COD; His6 (N); made in house; host or cells: E. coli (PTP1B co-expressed)
T2 sequence (P10721 with tags, fused parts or gaps): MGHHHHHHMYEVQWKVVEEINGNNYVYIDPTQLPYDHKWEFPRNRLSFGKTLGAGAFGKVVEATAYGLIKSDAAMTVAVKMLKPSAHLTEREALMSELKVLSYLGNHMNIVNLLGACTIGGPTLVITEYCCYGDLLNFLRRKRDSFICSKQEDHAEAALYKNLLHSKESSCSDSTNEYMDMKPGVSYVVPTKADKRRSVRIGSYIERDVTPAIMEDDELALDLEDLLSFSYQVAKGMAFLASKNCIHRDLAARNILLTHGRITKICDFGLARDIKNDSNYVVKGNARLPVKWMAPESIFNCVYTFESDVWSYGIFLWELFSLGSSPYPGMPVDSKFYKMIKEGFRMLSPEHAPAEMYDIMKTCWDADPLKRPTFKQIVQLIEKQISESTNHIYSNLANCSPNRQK

B-Raf V600E = target: T3, B-Raf V600E (Homo sapiens, UniProt P15056, V600E); test: AlphaScreen kinase assay, B-Raf V600E; details: read-out: IC50, activity toward kinase B-Raf V600E
T3 construct: P4254. pFastBacBD-CDC37 BRAF D437-K722-X, V600E; His6 with pFastBac HT leader (TEV site) (N); made in house; host or cells: Sf9 (baculovirus; chaperone CDC37 co-expressed)
T3 sequence (P15056 with tags, fused parts or gaps V600E): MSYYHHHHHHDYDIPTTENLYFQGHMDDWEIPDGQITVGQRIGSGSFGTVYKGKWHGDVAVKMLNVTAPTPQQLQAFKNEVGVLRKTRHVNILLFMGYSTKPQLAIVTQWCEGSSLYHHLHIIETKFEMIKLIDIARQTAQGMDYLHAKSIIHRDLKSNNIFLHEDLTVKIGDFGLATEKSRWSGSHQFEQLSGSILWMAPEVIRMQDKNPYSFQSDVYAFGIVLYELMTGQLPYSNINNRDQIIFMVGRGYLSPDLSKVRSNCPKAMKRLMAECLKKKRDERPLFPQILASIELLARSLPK

Fms = target: T4, Fms (Homo sapiens, UniProt P07333); test: AlphaScreen kinase assay, Fms; details: read-out: IC50, activity toward kinase Fms
T4 construct: purchased Upstate Biotechnology
T4 sequence (P07333 20-972): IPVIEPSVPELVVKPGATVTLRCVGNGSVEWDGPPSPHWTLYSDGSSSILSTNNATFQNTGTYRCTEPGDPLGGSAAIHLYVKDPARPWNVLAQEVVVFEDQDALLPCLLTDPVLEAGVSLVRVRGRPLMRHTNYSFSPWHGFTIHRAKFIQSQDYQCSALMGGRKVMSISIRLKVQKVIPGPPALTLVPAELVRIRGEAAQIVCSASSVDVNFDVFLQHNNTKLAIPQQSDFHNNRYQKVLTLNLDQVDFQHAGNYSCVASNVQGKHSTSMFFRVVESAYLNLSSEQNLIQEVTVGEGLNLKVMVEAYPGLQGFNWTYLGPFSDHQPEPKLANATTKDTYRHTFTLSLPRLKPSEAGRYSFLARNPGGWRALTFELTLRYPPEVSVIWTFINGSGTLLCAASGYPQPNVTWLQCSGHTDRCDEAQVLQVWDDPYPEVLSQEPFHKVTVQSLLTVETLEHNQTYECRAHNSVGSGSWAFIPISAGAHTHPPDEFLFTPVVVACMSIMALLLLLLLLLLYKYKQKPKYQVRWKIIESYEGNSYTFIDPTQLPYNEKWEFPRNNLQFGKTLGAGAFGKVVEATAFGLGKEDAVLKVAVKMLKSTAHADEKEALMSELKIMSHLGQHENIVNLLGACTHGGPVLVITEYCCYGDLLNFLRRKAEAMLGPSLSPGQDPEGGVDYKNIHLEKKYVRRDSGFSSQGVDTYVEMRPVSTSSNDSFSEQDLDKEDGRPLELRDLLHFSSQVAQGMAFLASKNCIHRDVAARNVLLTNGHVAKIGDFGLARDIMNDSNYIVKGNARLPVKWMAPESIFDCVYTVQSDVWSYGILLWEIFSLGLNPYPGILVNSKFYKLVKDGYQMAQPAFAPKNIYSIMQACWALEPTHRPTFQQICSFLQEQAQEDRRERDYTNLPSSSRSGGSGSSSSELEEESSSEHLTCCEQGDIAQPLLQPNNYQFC

SMILES | pIC50 (FGFR1) | pIC50 (Kit) | other results
COc1cccc(CCc2c[nH]c3ncccc23)c1 [Compound P-0450] |  | ≥ 5.00 | 
COc1cccc(CCc2c[nH]c3ncc(-c4ccsc4)cc23)c1 [Compound P-0519] |  | ≥ 5.00 | 
COc1cccc(Cc2c[nH]c3ncc(-c4ccc(Cl)s4)cc23)c1 [Compound P-0658] | ≥ 5.00 | ≥ 5.00 | 
OC(c1ccc2c(c1)OC(F)(F)O2)c1c[nH]c2ncc(Br)cc12 (stereo not shown) [Compound P-1550] | ≥ 5.00 | ≥ 5.00 | pIC50 (B-Raf V600E): ≥ 5.00
O=C(c1cc(F)cc(C(F)(F)F)c1)c1c[nH]c2ncc(-c3ccccc3)cc12 [Compound P-1407, (3-Fluoro-5-trifluoromethyl-phenyl)-(5-phenyl-1H-pyrrolo[2,3-b]pyridin-3-yl)-methanone] | ≥ 5.00 | ≥ 5.00 | 
COc1ccc(C(=O)c2c[nH]c3ncc(Br)cc23)c(F)c1 [Compound P-1320] |  | ≥ 5.00 | 
O=[N+]([O-])c1c[nH]c2nccc(Cl)c12 [Compound P-1096] |  | ≥ 5.00 | 
O=C(c1cc(OC(F)F)cc(OC(F)F)c1)c1c[nH]c2ncc(-c3ccccc3)cc12 [Compound P-1521, (3,5-Bis-difluoromethoxy-phenyl)-(5-phenyl-1H-pyrrolo[2,3-b]pyridin-3-yl)-methanone] |  | ≥ 5.00 | 
Cn1cnnc1-c1cccc(Nc2c[nH]c3ncccc23)c1 [Compound P-1504, [3-(4-Methyl-4H-[1,2,4]triazol-3-yl)-phenyl]-(1H-pyrrolo[2,3-b]pyridin-3-yl)-amine] |  |  | pIC50 (Fms): ≥ 5.00
O=C(c1cccc(OC(F)(F)F)c1)c1c[nH]c2ncc(-c3ccccc3)cc12 [Compound P-1408, (5-Phenyl-1H-pyrrolo[2,3-b]pyridin-3-yl)-(3-trifluoromethoxy-phenyl)-methanone] |  | ≥ 5.00 | 
O=C(c1c(F)ccc(N(Cc2ccccc2)Cc2ccccc2)c1F)c1c[nH]c2ncc(-c3cccnc3)cc12 [Compound P-1074] | ≥ 5.00 |  | pIC50 (B-Raf V600E): ≥ 5.00
FC(F)(F)Oc1cccc(Cc2c[nH]c3nccc(Br)c23)c1 [Compound P-1123] | ≥ 5.00 |  | pIC50 (B-Raf V600E): ≥ 5.00
CCCCOc1ccc(NC(=O)Nc2cccc(C(=O)c3c[nH]c4ncc(-c5ccc(F)cc5)cc34)c2)cc1 [Compound P-1754, 1-(4-Butoxy-phenyl)-3-{3-[5-(4-fluoro-phenyl)-1H-pyrrolo[2,3-b]pyridine-3-carbonyl]-phenyl}-urea] |  |  | pIC50 (Fms): ≥ 5.00
COc1cccc(C(=O)c2c[nH]c3ncc(Nc4ccccc4)cc23)c1 [Compound P-1120] | ≥ 5.00 |  | pIC50 (B-Raf V600E): ≥ 5.00
CCOc1cccc(Cc2c[nH]c3ncccc23)c1 [Compound P-0459] | ≥ 5.00 | ≥ 5.00 | 
COc1nc(NCc2ccc(C(F)(F)F)cc2)ccc1Cc1c[nH]c2ncccc12 [Compound P-1124] |  |  | pIC50 (Fms): ≥ 5.00
c1ccc(CNc2ccc(Cc3c[nH]c4ncccc34)cc2)cc1 [Compound P-0493] | ≥ 5.00 |  | pIC50 (B-Raf V600E): ≥ 5.00
OC(c1ccc(NCc2ccc(C(F)(F)F)cc2)nc1)c1c[nH]c2ncccc12 (stereo not shown) [Compound P-0291] |  |  | pIC50 (Fms): ≥ 5.00

SMILES | pIC50 (FGFR1) | pIC50 (Kit) | other results
CC(=O)Nc1cccc(-c2cnc3[nH]cc(C(=O)c4cc(F)cc(C(F)(F)F)c4)c3c2)c1 [Compound P-1421, N-{3-[3-(3-Fluoro-5-trifluoromethyl-benzoyl)-1H-pyrrolo[2,3-b]pyridin-5-yl]-phenyl}-acetamide] |  |  | pIC50 (Fms): ≥ 5.00
COCCNC(=O)Nc1cccc(C(=O)c2c[nH]c3ncccc23)c1 [Compound P-1761, 1-(2-Methoxy-ethyl)-3-[3-(1H-pyrrolo[2,3-b]pyridine-3-carbonyl)-phenyl]urea] |  |  | pIC50 (Fms): ≥ 5.00
O=C(c1cccc(Cl)c1Cl)c1c[nH]c2ncc(Br)cc12 [Compound P-0294] | ≥ 5.00 |  | 
COc1cccc(Cc2c[nH]c3ncccc23)c1 [Compound P-0239] |  |  | pIC50 (Fms): ≥ 5.00
COc1cccc(Cc2c[nH]c3ncc(-c4ccc(C(F)(F)F)cc4)cc23)c1F [Compound P-1324, 3-(2-Fluoro-3-methoxy-benzyl)-5-(4-trifluoromethyl-phenyl)-1H-pyrrolo[2,3-b]pyridine] |  |  | pIC50 (Fms): ≥ 5.00
O=C(c1cccc([N+](=O)[O-])c1)c1c[nH]c2ncccc12 [Compound P-0219] | ≥ 5.00 |  | 
Cc1ccc(F)c(C(=O)c2c[nH]c3ncccc23)c1F [Compound P-1274] | ≥ 5.00 |  | 
CN(c1ccc(Cl)c(Cl)c1)c1c[nH]c2ncccc12 [Compound P-1494, (3,4-Dichloro-phenyl)-methyl-(1H-pyrrolo[2,3-b]pyridin-3-yl)-amine] |  |  | pIC50 (Fms): ≥ 5.00
CC(C)(C)c1ccc(Cc2c[nH]c3ncccc23)cc1 [Compound P-0828] | ≥ 5.00 |  | 
O=C(c1ccc(Cl)cc1Cl)c1c[nH]c2ncc(Br)cc12 [Compound P-1565] |  | ≥ 5.00 | 
Fc1ccc(OCc2ccccc2)c(F)c1Cc1c[nH]c2ncc(-c3cccnc3)cc12 [Compound P-1455, 3-(3-Benzyloxy-2,6-difluoro-benzyl)-5-pyridin-3-yl-1H-pyrrolo[2,3-b]pyridine] | ≥ 5.00 |  | 
O=C(c1ccc(Cl)nc1)c1c[nH]c2ncc(Br)cc12 [Compound P-0499] |  | ≥ 5.00 | 
O=[N+]([O-])c1ccc(Sc2c[nH]c3ncc(Cl)cc23)nc1 [Compound P-1562] |  | ≥ 5.00 | 
c1cnc2[nH]cc(Cc3ccc(NCC4CC4)nc3)c2c1 [Compound P-0400] | ≥ 5.00 |  | 
c1ccc(Nc2cnc3[nH]ccc3c2)cc1 [Compound P-0384] |  | ≥ 5.00 | 
COc1cccc(Cc2c[nH]c3ncc(-c4ccccc4)cc23)c1 [Compound P-1084] |  | ≥ 5.00 | 
COc1ccc(Sc2c[nH]c3ncc(Cl)cc23)nc1 [Compound P-1574] |  | ≥ 5.00 | 
Brc1ccc(Cc2c[nH]c3ncccc23)cc1 [Compound P-0615] | ≥ 5.00 |  | 

Continued, in another order:

pIC50 (FGFR1) | pIC50 (Kit) | SMILES | other results
≥ 5.00 | ≥ 5.00 | CN(C)c1ccc(Cc2c[nH]c3ncccc23)cn1 [Compound P-0935] | 
≥ 5.00 |  | CS(=O)(=O)Nc1cccc(-c2cnc3[nH]cc(C(=O)c4cccc5c4OC(F)(F)O5)c3c2)c1 [Compound P-1516, N-{3-[3-(2,2-Difluoro-benzo[1,3]dioxole-4-carbonyl)-1H-pyrrolo[2,3-b]pyridin-5-yl]-phenyl}-methanesulfonamide] | pIC50 (B-Raf V600E): ≥ 5.00
≥ 5.00 | ≥ 5.00 | O=C(c1ccccc1OCc1ccccc1)c1c[nH]c2ncc(Br)cc12 [Compound P-1382] | 
≥ 5.00 |  | CC(C)(C)Oc1ccc(Cc2c[nH]c3ncccc23)cn1 [Compound P-0819] | pIC50 (B-Raf V600E): ≥ 5.00
≥ 5.00 | ≥ 5.00 | Clc1ccc(Cc2c[nH]c3nccc(Br)c23)cn1 [Compound P-0447] | pIC50 (B-Raf V600E): ≥ 5.00
≥ 5.00 |  | O=C(c1ccc2ccccc2n1)c1c[nH]c2ncccc12 [Compound P-0479] | 
 | ≥ 5.00 | O=C(c1ccc2nsnc2c1)c1c[nH]c2ncc(-c3cccnc3)cc12 [Compound P-0905] | pIC50 (B-Raf V600E): ≥ 5.00
≥ 5.00 |  | COc1ccc(Cc2c[nH]c3ncc(Br)cc23)c(F)c1 [Compound P-1322] | 
≥ 5.00 | ≥ 5.00 | Cc1ccc(Cc2c[nH]c3ncccc23)cc1 [Compound P-0346] | 
≥ 5.00 |  | COCCOc1ccc(F)c(C(=O)c2c[nH]c3ncc(OC)cc23)c1F [Compound P-1584, [2,6-Difluoro-3-(2-methoxy-ethoxy)-phenyl]-(5-methoxy-1H-pyrrolo[2,3-b]pyridin-3-yl)-methanone] | 
 | ≥ 5.00 | OCc1cccc(-c2c(CNCC(O)c3ccc(O)cc3)[nH]c3ncccc23)c1 (stereo not shown) [Compound P-0554] | 
≥ 5.00 | ≥ 5.00 | FC(F)Oc1cc(Cc2c[nH]c3ncc(Br)cc23)cc(OC(F)F)c1 [Compound P-1538, 3-(3,5-Bis-difluoromethoxy-benzyl)-5-bromo-1H-pyrrolo[2,3-b]pyridine] | 
≥ 5.00 |  | Cc1ccc(F)cc1C(=O)c1c[nH]c2ncc(Br)cc12 [Compound P-0424] | 
≥ 5.00 |  | COc1cccc(Cc2c[nH]c3ncc(-c4ccc(C(=O)C(F)(F)F)[nH]4)cc23)c1 [Compound P-0309] | 
≥ 5.00 |  | OC(c1cccc2c1OC(F)(F)O2)c1c[nH]c2ncc(Br)cc12 (stereo not shown) [Compound P-1512] | 
 | ≥ 5.00 | O=C(c1ccc2c(c1)OC(F)(F)O2)c1c[nH]c2ncc(Br)cc12 [Compound P-1551, (5-Bromo-1H-pyrrolo[2,3-b]pyridin-3-yl)-(2,2-difluoro-benzo[1,3]dioxol-5-yl)-methanone] | 
 | ≥ 5.00 | CCCS(=O)(=O)Nc1ccc(F)c(C(OC)c2c[nH]c3ncc(Br)cc23)c1F (stereo not shown) [Compound P-1275] | 
 | ≥ 5.00 | O=C(c1cccc(OC(F)F)c1)c1c[nH]c2ncc(Br)cc12 [Compound P-1514, (5-Bromo-1H-pyrrolo[2,3-b]pyridin-3-yl)-(3-difluoromethoxy-phenyl)-methanone] | 
≥ 5.00 |  | CC(C)Nc1ccc(C(=O)c2c[nH]c3ncccc23)cn1 [Compound P-0227] | 
≥ 5.00 | ≥ 5.00 | OCCOc1cccc(Cc2c[nH]c3ncccc23)c1 [Compound P-0411] | 
 | ≥ 5.00 | c1ccc(Sc2c[nH]c3ncccc23)cc1 [Compound P-0626] | 
 | ≥ 5.00 | COC(=O)c1cnc2[nH]ccc2c1 [Compound P-1543] | 
 | ≥ 5.00 | Clc1ccc(-c2cnc3[nH]ccc3c2)cc1 [Compound P-0815] | 
≥ 5.00 |  | Cc1ccc(Cc2c[nH]c3ncccc23)cc1C [Compound P-0368] | 
